# Columns and labels:
# [1] = target: T1, Phosphodiesterase 4 enzyme; assay: radiometric enzyme inhibition assay, scintillation counting; type: biochemical; details: [3H]cAMP substrate; enzyme preparation from U-937 cells
# T1 construct: gene PDE4A; native enzyme preparation from U-937 cells; provided by Cerep
# Source text: radiometric enzyme inhibition assay, scintillation counting on Phosphodiesterase 4 enzyme
# Adenosine A2B receptor = target: T2, Adenosine A2B receptor (Homo sapiens, UniProt P29275); assay: radioligand displacement, filtration, Cheng-Prusoff; type: binding; details: [3H]DPCPX; receptor preparation from HEK293 cells
# T2 construct: gene ADORA2B; cloned human receptor in HEK293 cells; cells provided by Cerep
# T2 sequence (P29275 1-332): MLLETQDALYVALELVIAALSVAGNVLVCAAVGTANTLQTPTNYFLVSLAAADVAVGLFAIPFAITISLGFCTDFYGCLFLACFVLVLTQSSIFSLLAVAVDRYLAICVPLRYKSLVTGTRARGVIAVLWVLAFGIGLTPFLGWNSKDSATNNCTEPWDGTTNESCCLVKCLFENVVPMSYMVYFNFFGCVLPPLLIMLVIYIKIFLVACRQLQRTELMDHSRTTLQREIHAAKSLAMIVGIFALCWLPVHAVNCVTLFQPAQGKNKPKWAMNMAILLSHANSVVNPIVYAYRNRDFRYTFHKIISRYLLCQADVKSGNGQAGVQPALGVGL
# Source text: radioligand displacement, filtration, Cheng-Prusoff on Adenosine A2B receptor
# Adenosine A3 receptor = target: T3, Adenosine A3 receptor (Homo sapiens, UniProt P0DMS8); assay: as above; type: binding; details: [3H]AB-MECA; receptor preparation from HEK293 cells
# T3 construct: gene ADORA3; cloned human receptor in HEK293 cells; cells provided by Cerep
# T3 sequence (P0DMS8 1-318): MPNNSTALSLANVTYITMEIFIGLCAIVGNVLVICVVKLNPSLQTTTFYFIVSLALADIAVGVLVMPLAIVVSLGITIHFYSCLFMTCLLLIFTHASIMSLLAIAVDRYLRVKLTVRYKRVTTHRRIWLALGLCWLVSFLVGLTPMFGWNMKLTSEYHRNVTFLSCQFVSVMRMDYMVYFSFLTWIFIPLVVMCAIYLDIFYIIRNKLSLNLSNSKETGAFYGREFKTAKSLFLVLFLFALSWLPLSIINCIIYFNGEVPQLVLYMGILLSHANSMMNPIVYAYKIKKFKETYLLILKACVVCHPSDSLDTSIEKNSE
# Source text: radioligand displacement, filtration, Cheng-Prusoff on Adenosine A3 receptor
# [2] = target: T4, Phosphodiesterase 4 rolipram binding; assay: as above; details: [3H]rolipram; total brain; high-affinity rolipram-binding site
# T4 construct: gene Pde4a; provided by Cerep
# Source text: radioligand displacement, filtration, Cheng-Prusoff on Phosphodiesterase 4 rolipram binding
# Adenosine A2A receptor = target: T5, Adenosine A2A receptor (Homo sapiens, UniProt P29274); assay: as above; type: binding; details: [3H]CGS21680; receptor preparation from HEK293 cells
# T5 construct: gene ADORA2A; cloned human receptor in HEK293 cells; cells provided by Cerep
# Source text: radioligand displacement, filtration, Cheng-Prusoff on Adenosine A2A receptor
# [3] = target: T6, Adenosine A1 receptor (A1R) (Homo sapiens, UniProt P30542); assay: as above; type: binding; details: [3H]DPCPX; receptor preparation from CHO cells; antagonist
# T6 construct: gene ADORA1; cloned human receptor in CHO cells; cells provided by Cerep
# T6 sequence (P30542 1-326): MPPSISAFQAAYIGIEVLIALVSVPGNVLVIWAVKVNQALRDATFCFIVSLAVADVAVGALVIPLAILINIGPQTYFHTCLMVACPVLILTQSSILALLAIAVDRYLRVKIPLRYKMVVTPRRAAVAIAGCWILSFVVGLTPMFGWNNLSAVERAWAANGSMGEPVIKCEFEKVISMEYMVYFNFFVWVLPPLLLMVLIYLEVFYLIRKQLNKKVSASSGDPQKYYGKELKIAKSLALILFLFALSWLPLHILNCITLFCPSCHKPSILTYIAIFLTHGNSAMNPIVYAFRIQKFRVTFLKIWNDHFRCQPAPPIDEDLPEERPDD
# Source text: radioligand displacement, filtration, Cheng-Prusoff on Adenosine A1 receptor (A1R)
# T5 sequence (P29274 whole entry): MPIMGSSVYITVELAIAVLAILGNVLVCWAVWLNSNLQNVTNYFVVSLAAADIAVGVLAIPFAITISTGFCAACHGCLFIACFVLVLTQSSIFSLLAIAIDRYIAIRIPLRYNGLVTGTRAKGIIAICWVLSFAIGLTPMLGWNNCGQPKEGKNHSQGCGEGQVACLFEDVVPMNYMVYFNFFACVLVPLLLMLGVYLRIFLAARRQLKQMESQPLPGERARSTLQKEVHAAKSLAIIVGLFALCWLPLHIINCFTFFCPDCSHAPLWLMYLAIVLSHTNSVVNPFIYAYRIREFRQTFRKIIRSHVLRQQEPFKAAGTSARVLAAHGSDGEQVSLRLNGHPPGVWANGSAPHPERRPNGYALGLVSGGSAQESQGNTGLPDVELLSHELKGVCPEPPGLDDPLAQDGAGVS
substance,measurement,setting,value
SLV329,SLV329 Affinity,[1],5.4±0.1
same,SLV329 Affinity,Adenosine A2B receptor,6.3±0.1
same,SLV329 Affinity,Adenosine A3 receptor,6.9±0.1
same,SLV329 Affinity,[2],6.1±0.2
same,SLV329 Affinity,Adenosine A2A receptor,7.2±0.2
same,SLV329 Affinity,[3],9.2±0.2

# From article PMC3053401, “Renal Effects of the Novel Selective Adenosine A1 Receptor Blocker SLV329 in Experimental Liver Cirrhosis in Rats” (PLoS ONE, 2011)
